# In US20100267561A1, “HERBICIDAL PYRIDAZINONE DERIVATIVES” (priority 2007, published 2010):
# Experiments:
# Type in all cases: in vivo
# corn (Zea mays) = assay: Test A pre-/postemergence plant response
# Method in brief: (§1)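 Seeds were planted in blended loam soil and sand, then treated preemergence by directed soil spray. At that time, emerged plants (one- to two-leaf, 2–10 cm) received postemergence applications of the same surfactant-containing formulation. Injury was assessed visually on a 0–100 scale after approximately 10 days.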
# [1] = test system: giant foxtail (Setaria faberi); assay: Test A pre-/postemergence plant response
# Method in brief: as §1
# [2] = test system: barnyardgrass (Echinochloa crus-galli); assay: Test A pre-/postemergence plant response
# Method in brief: as §1
# [3] = test system: large crabgrass (Digitaria sanguinalis); assay: Test A pre-/postemergence plant response
# Method in brief: as §1
# [4] = test system: yellow nutsedge (Cyperus esculentus); assay: Test B pre-/postemergence plant response
# Method in brief: (§2)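 Seeds were sown and sprayed preemergence, while plants at 2 to 18 cm (1- to 4-leaf stage) got postemergence sprays. Compounds were formulated in a non-phytotoxic solvent mixture with surfactant. After 13 to 15 days in a greenhouse, injury was rated visually against untreated controls, 0 (no effect) to 100 (complete control).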
# [5] = test system: wheat (Triticum aestivum); assay: Test B pre-/postemergence plant response
# Method in brief: as §2
# wild oat (Avena fatua) = assay: Test B pre-/postemergence plant response
# Method in brief: as §2
# [6] = test system: windgrass (Apera spica-venti); assay: Test B postemergence plant response; conditions: for Windgrass plant response rating: postemergence, 0-100 scale; for Plant response rating, Windgrass: Postemergence
# Procedure: (§3) At the same time, plants selected from these crop and weed species and also winter barley (Hordeum vulgare), canarygrass (Phalaris minor), chickweed (Stellaria media) and windgrass (Apera spica-venti) were treated with postemergence applications of some of the test chemicals formulated in the same manner. Plants ranged in height from 2 to 18 cm (1- to 4-leaf stage) for postemergence treatments.
# (§4) Plant species in the flooded paddy test consisted of rice (Oryza sativa), umbrella sedge (Cyperus difformis), ducksalad (Heteranthera limosa) and barnyardgrass (Echinochloa crus-galli) grown to the 2-leaf stage for testing. At time of treatment, test pots were flooded to 3 cm above the soil surface, treated by application of test compounds directly to the paddy water, and then maintained at that water depth for the duration of the test. Treated plants and controls were maintained in a greenhouse for 13 to 15 days, after which time all species were compared to controls and visually evaluated. Plant response ratings, summarized in Table B, are based on a scale of 0 to 100 where 0 is no effect and 100 is complete control. A dash (-) response means no test result.
# [7] = test system: chickweed (Stellaria media); assay: Test B postemergence plant response; conditions: for Chickweed plant response rating: 8 g ai/ha, postemergence, 0-100 scale; for Plant response rating, Chickweed: Postemergence
# Procedure: as §3, §4
# [8] = test system: canarygrass (Phalaris minor); assay: Test B postemergence plant response; conditions: for Plant response rating, Canarygrass: Postemergence; for Canarygrass plant response rating: 8 g ai/ha, postemergence, 0-100 scale
# Procedure: as §3, §4
# [9] = test system: winter barley (Hordeum vulgare); assay: Test B postemergence plant response; conditions: for Barley plant response rating: 8 g ai/ha, postemergence, 0-100 scale; for Plant response rating, Barley: Postemergence, scale 0 to 100, 0 no effect, 100 complete control
# Procedure: as §3, §4
# [10] = Postemergence, 31 g ai/ha, 0 to 100 scale, 0 no effect, 100 complete control
# [11] = Postemergence, 125 g ai/ha, 0 to 100 scale, 0 no effect, 100 complete control
# [12] = Preemergence, 31 g ai/ha, 0 to 100 scale, 0 is no effect, 100 is complete control
# [13] = Preemergence, 125 g ai/ha, 0 to 100 scale (0 no effect, 100 complete control)
# [14] = 8 g ai/ha, postemergence, 0-100 scale
# [15] = 16 g ai/ha, postemergence, 0-100 scale
# [16] = Postemergence, 31 g ai/ha, scale 0 to 100
# [17] = Postemergence, 62 g ai/ha, scale 0 to 100, 0 no effect, 100 complete control
# [18] = Preemergence, 31 g ai/ha, scale 0 to 100 (0 no effect, 100 complete control)
# [19] = Preemergence, 62 g ai/ha, 0 to 100 scale, 0 no effect, 100 complete control
# [20] = Preemergence, 8 g ai/ha, scale 0 to 100
# [21] = Preemergence, 16 g ai/ha, scale 0 to 100
# [22] = 62 g ai/ha, scale 0 to 100, 0 no effect, 100 complete control
structure (smiles),measurement,setting,value
CCCc1cc(-c2ccc(C(F)(F)F)cc2)nn1-c1c(O)cnn(C)c1=O [Compound 72],"Plant response rating, Corn",corn (Zea mays); [10],80
same,"Plant response rating, Corn",corn (Zea mays); [11],100
same,"Plant response rating, Corn",corn (Zea mays); [12],20
same,"Plant response rating, Corn",corn (Zea mays); [13],50
same,"Plant response rating, Foxtail, Giant",[1]; [10],90
same,"Plant response rating, Foxtail, Giant",[1]; [11],100
same,"Plant response rating, Foxtail, Giant",[1]; [12],70
same,"Plant response rating, Foxtail, Giant",[1]; [13],90
same,"Plant response rating, Barnyardgrass",[2]; [10],50
same,"Plant response rating, Barnyardgrass",[2]; [11],100
same,"Plant response rating, Barnyardgrass",[2]; [12],20
same,"Plant response rating, Barnyardgrass",[2]; [13],90
same,"Plant response rating, Crabgrass, Large",[3]; [10],20
same,"Plant response rating, Crabgrass, Large",[3]; [11],90
same,"Plant response rating, Crabgrass, Large",[3]; [12],0
same,"Plant response rating, Crabgrass, Large",[3]; [13],60
same,"Nutsedge, Yellow plant response rating",[4]; [14],0
same,"Nutsedge, Yellow plant response rating",[4]; [15],0
same,"Plant response rating, Nutsedge, Yellow",[4]; [16],0
same,"Plant response rating, Nutsedge, Yellow",[4]; [17],0
same,"Plant response rating, Nutsedge, Yellow",[4]; [18],0
same,"Plant response rating, Nutsedge, Yellow",[4]; [19],0
same,"Nutsedge, Yellow plant response rating",[4]; [20],0
same,"Nutsedge, Yellow plant response rating",[4]; [21],0
same,Wheat plant response rating,[5]; [14],85
same,Wheat plant response rating,[5]; [15],85
same,"Plant response rating, Wheat",[5]; [16],85
same,"Plant response rating, Wheat",[5]; [17],95
same,"Plant response rating, Wheat",[5]; [18],80
same,"Plant response rating, Wheat",[5]; [19],90
same,Wheat plant response rating,[5]; [21],35
same,"Oat, Wild plant response rating",wild oat (Avena fatua); [14],100
same,"Oat, Wild plant response rating",wild oat (Avena fatua); [15],100
same,"Plant response rating, Oat, Wild",wild oat (Avena fatua); [16],100
same,"Plant response rating, Oat, Wild",wild oat (Avena fatua); [17],100
same,"Plant response rating, Oat, Wild",wild oat (Avena fatua); [18],95
same,"Plant response rating, Oat, Wild",wild oat (Avena fatua); [19],98
same,"Oat, Wild plant response rating",wild oat (Avena fatua); [20],60
same,"Oat, Wild plant response rating",wild oat (Avena fatua); [21],80
same,Windgrass plant response rating,[6]; 8 g ai/ha,85
same,Windgrass plant response rating,[6]; 16 g ai/ha,100
same,"Plant response rating, Windgrass","[6]; 31 g ai/ha, scale 0 to 100",100
same,"Plant response rating, Windgrass",[6]; [22],100
same,Chickweed plant response rating,[7],0
same,"Plant response rating, Chickweed","[7]; 16 g ai/ha, scale 0 to 100",0
same,"Plant response rating, Chickweed","[7]; 31 g ai/ha, scale 0 to 100",0
same,"Plant response rating, Chickweed",[7]; [22],0
same,"Plant response rating, Canarygrass","[8]; 16 g ai/ha, scale 0 to 100",30
same,"Plant response rating, Canarygrass","[8]; 31 g ai/ha, scale 0 to 100",30
same,"Plant response rating, Canarygrass",[8]; [22],95
same,Barley plant response rating,[9],0
same,"Plant response rating, Barley",[9]; 16 g ai/ha,0
same,"Plant response rating, Barley",[9]; 31 g ai/ha,0
same,"Plant response rating, Barley",[9]; 62 g ai/ha,95
CCc1cc(-c2ccc(Br)cc2)nn1-c1c(O)cnn(CC(F)(F)F)c1=O [Compound 73],"Plant response rating, Corn",corn (Zea mays); [10],90
same,"Plant response rating, Corn",corn (Zea mays); [11],100
same,"Plant response rating, Corn",corn (Zea mays); [12],0
same,"Plant response rating, Corn",corn (Zea mays); [13],20
same,"Plant response rating, Foxtail, Giant",[1]; [10],50
same,"Plant response rating, Foxtail, Giant",[1]; [11],100
same,"Plant response rating, Foxtail, Giant",[1]; [12],0
same,"Plant response rating, Foxtail, Giant",[1]; [13],30
same,"Plant response rating, Barnyardgrass",[2]; [10],60
same,"Plant response rating, Barnyardgrass",[2]; [11],100
same,"Plant response rating, Barnyardgrass",[2]; [12],0
same,"Plant response rating, Barnyardgrass",[2]; [13],10
same,"Plant response rating, Crabgrass, Large",[3]; [10],40
same,"Plant response rating, Crabgrass, Large",[3]; [11],100
same,"Plant response rating, Crabgrass, Large",[3]; [12],0
same,"Plant response rating, Crabgrass, Large",[3]; [13],50
same,"Nutsedge, Yellow plant response rating",[4]; [14],0
same,"Nutsedge, Yellow plant response rating",[4]; [15],0
same,"Plant response rating, Nutsedge, Yellow",[4]; [16],0
same,"Plant response rating, Nutsedge, Yellow",[4]; [17],0
same,Wheat plant response rating,[5]; [14],5
same,Wheat plant response rating,[5]; [15],60
same,"Plant response rating, Wheat",[5]; [16],90
same,"Plant response rating, Wheat",[5]; [17],95
same,"Oat, Wild plant response rating",wild oat (Avena fatua); [14],70
same,"Oat, Wild plant response rating",wild oat (Avena fatua); [15],95
same,"Plant response rating, Oat, Wild",wild oat (Avena fatua); [16],100
same,"Plant response rating, Oat, Wild",wild oat (Avena fatua); [17],100
same,Windgrass plant response rating,[6]; 8 g ai/ha,50
same,Windgrass plant response rating,[6]; 16 g ai/ha,60
same,"Plant response rating, Windgrass","[6]; 31 g ai/ha, scale 0 to 100",80
same,"Plant response rating, Windgrass",[6]; [22],95
same,Chickweed plant response rating,[7],0
same,"Plant response rating, Chickweed","[7]; 16 g ai/ha, scale 0 to 100",0
same,"Plant response rating, Chickweed","[7]; 31 g ai/ha, scale 0 to 100",0
same,"Plant response rating, Chickweed",[7]; [22],0
same,Canarygrass plant response rating,[8],30
same,"Plant response rating, Canarygrass","[8]; 16 g ai/ha, scale 0 to 100",90
same,"Plant response rating, Canarygrass","[8]; 31 g ai/ha, scale 0 to 100",90
same,"Plant response rating, Canarygrass",[8]; [22],100
same,Barley plant response rating,[9],0
same,"Plant response rating, Barley",[9]; 16 g ai/ha,40
same,"Plant response rating, Barley",[9]; 31 g ai/ha,40
same,"Plant response rating, Barley",[9]; 62 g ai/ha,70
CCc1cc(-c2ccc(Br)cc2)nn1-c1c(O)c(C)nn(C)c1=O [Compound 74],"Plant response rating, Corn",corn (Zea mays); [10],60
same,"Plant response rating, Corn",corn (Zea mays); [11],100
same,"Plant response rating, Corn",corn (Zea mays); [13],60
same,"Plant response rating, Foxtail, Giant",[1]; [10],70
same,"Plant response rating, Foxtail, Giant",[1]; [11],100
same,"Plant response rating, Foxtail, Giant",[1]; [12],90
same,"Plant response rating, Foxtail, Giant",[1]; [13],100
same,"Plant response rating, Barnyardgrass",[2]; [10],100
same,"Plant response rating, Barnyardgrass",[2]; [11],100
same,"Plant response rating, Barnyardgrass",[2]; [12],100
same,"Plant response rating, Barnyardgrass",[2]; [13],100
same,"Plant response rating, Crabgrass, Large",[3]; [10],60
same,"Plant response rating, Crabgrass, Large",[3]; [11],100
same,"Plant response rating, Crabgrass, Large",[3]; [12],50
same,"Plant response rating, Crabgrass, Large",[3]; [13],90
same,"Nutsedge, Yellow plant response rating",[4]; [14],0
same,"Nutsedge, Yellow plant response rating",[4]; [15],0
same,"Plant response rating, Nutsedge, Yellow",[4]; [16],0
same,"Plant response rating, Nutsedge, Yellow",[4]; [17],0
same,"Plant response rating, Nutsedge, Yellow",[4]; [18],0
same,"Plant response rating, Nutsedge, Yellow",[4]; [19],0
same,"Nutsedge, Yellow plant response rating",[4]; [20],0
same,"Nutsedge, Yellow plant response rating",[4]; [21],0
same,Wheat plant response rating,[5]; [14],40
same,Wheat plant response rating,[5]; [15],70
same,"Plant response rating, Wheat",[5]; [16],90
same,"Plant response rating, Wheat",[5]; [17],95
same,"Plant response rating, Wheat",[5]; [18],25
same,"Plant response rating, Wheat",[5]; [19],85
same,Wheat plant response rating,[5]; [21],0
same,"Oat, Wild plant response rating",wild oat (Avena fatua); [14],98
same,"Oat, Wild plant response rating",wild oat (Avena fatua); [15],98
same,"Plant response rating, Oat, Wild",wild oat (Avena fatua); [16],100
same,"Plant response rating, Oat, Wild",wild oat (Avena fatua); [17],100
same,"Plant response rating, Oat, Wild",wild oat (Avena fatua); [18],70
same,"Plant response rating, Oat, Wild",wild oat (Avena fatua); [19],80
same,"Oat, Wild plant response rating",wild oat (Avena fatua); [20],50
same,"Oat, Wild plant response rating",wild oat (Avena fatua); [21],70
same,Windgrass plant response rating,[6]; 8 g ai/ha,85
same,Windgrass plant response rating,[6]; 16 g ai/ha,90
same,"Plant response rating, Windgrass","[6]; 31 g ai/ha, scale 0 to 100",100
same,"Plant response rating, Windgrass",[6]; [22],100
same,Chickweed plant response rating,[7],0
same,"Plant response rating, Chickweed","[7]; 16 g ai/ha, scale 0 to 100",0
same,"Plant response rating, Chickweed","[7]; 31 g ai/ha, scale 0 to 100",0
same,"Plant response rating, Chickweed",[7]; [22],0
same,Canarygrass plant response rating,[8],80
same,"Plant response rating, Canarygrass","[8]; 16 g ai/ha, scale 0 to 100",90
same,"Plant response rating, Canarygrass","[8]; 31 g ai/ha, scale 0 to 100",100
same,"Plant response rating, Canarygrass",[8]; [22],100
same,Barley plant response rating,[9],20
same,"Plant response rating, Barley",[9]; 16 g ai/ha,40
same,"Plant response rating, Barley",[9]; 31 g ai/ha,95
same,"Plant response rating, Barley",[9]; 62 g ai/ha,95
